{"source": "patent US8758723B2", "about": "“Compositions and methods for cellular imaging and therapy” (The Board of Regents of the University of Texas System, priority 2006, dated 2014)", "system": "tumor-bearing animal models", "test": "Planar images of tumor-bearing animal models", "assay_type": "in vivo", "conditions": "tumor-bearing animal models (FIGS. 5-7, 9, 10)", "experimental": "Imaging studies were performed 12 to 15 days after inoculation. Tumor sizes of approximately 1-1.5 cm were measured. Scintigraphic images were obtained using an M-camera from Siemens Medical Systems (Hoffman Estates, Ill.). The camera was equipped with a low-energy parallel-hole collimator.\nPlanar scintigraphy was obtained at immediate, 0.5-4 hrs after i.v. injection of ^99mTc—N4-DG, or ^99mTc—N4 (0.3 mCi/rat; 0.1 mg mass/rabbit). To compare the radiotracer accumulation, ROIs (region of interest in counts per pixel) were determined. The ROIs count between tumor and muscle was used to calculate tumor-to-nontumor ratios.", "data": [{"smiles": "CC(N)(Cc1ccc(OCCCN2CCCNCCNCCCNCC2)cc1)C(=O)O", "note": "(stereo not shown) [Example N4-AMT]", "values": [{"measurement": "tumor visualization on planar images", "result": "visualized clearly"}]}]}
